Source: patent publication US8871756B2 (Hoffmann-La Roche Inc., priority 2011, dated 2014)

System: RSV Long strain
Experiment: Viral cytopathic effect (CPE) assay, anti-RSV activity
Format: cell-based, Respiratory Syncytial Virus
Conditions: human respiratory syncytial virus, 144 h, RSV Long strain (ATCC); cell viability after 6 days, Cell Counting kit-8
Summary of the method: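 EC50 was derived from CCK-8 viability at 450/630 nm measured 6 days post-infection. Infection used enough RSV Long strain for approximately 80–90% cytopathic effect, in the presence of half-log serially diluted compound. Cells were plated the day before at 6×10^3 per well in DMEM/10% FBS.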

Row | Structure (SMILES) | EC50 [µM]
1 | Cc1ccc2nc(N3CCS(=O)(=O)c4ccccc4C3)nc(NCCO)c2c1 [Example 57-7, 2-{[2-(1,1-Dioxido-2,3-dihydro-1,4-benzothiazepin-4(5H)-yl)-6-methylquinazolin-4-yl]amino}ethanol] | 0.081
2 | NCCCNc1cc(N2CCS(=O)(=O)c3ccccc3C2)nc2ccc(Br)cc12 [Example 9-34, N-[6-Bromo-2-(1,1-dioxido-2,3-dihydro-1,4-benzothiazepin-4(5H)-yl)quinolin-4-yl]propane-1,3-diamine] | 0.024
3 | CC(=O)NCCNc1cc(N2CCS(=O)(=O)c3ccccc3C2)nc2ccc(C)cc12 [Example 63-1, N-(2-{[2-(1,1-Dioxido-2,3-dihydro-1,4-benzothiazepin-4(5H)-yl)-6-methylquinolin-4-yl]amino}ethyl)acetamide] | 3.13
4 | NCCCNc1cc(N2CCS(=O)(=O)c3ccccc3C2)nc2ccc(OC(F)F)cc12 [Example 17-3, N-[6-(Difluoromethoxy)-2-(1,1-dioxido-2,3-dihydro-1,4-benzothiazepin-4(5H)-yl)quinolin-4-yl]propane-1,3-diamine] | 2.17
5 | Cc1ccc2nc(N3CCS(=O)(=O)c4ccccc4C3)nc(NCC(F)CN)c2c1 (centres unmarked) [Example 56-5, N-[2-(1,1-Dioxido-2,3-dihydro-1,4-benzothiazepin-4(5H)-yl)-6-methylquinazolin-4-yl]-2-fluoropropane-1,3-diamine] | 0.022
6 | Cc1ccc2nc(N3CCS(=O)(=O)c4ccccc4C3)cc(NC(=O)c3ccccc3)c2c1 [Example 3-59, N-[2-(1,1-Dioxido-2,3-dihydro-1,4-benzothiazepin-4(5H)-yl)-6-methylquinolin-4-yl]benzamide] | 1.08
7 | Cc1ccc2c(c1)S(=O)(=O)CCN(c1cc(NCC3(N)COC3)c3cc(C)ccc3n1)C2 [Example 2-5, N-[(3-Aminooxetan-3-yl)methyl]-6-methyl-2-(8-methyl-1,1-dioxido-2,3-dihydro-1,4-benzothiazepin-4(5H)-yl)quinolin-4-amine] | 0.006
8 | NCC(=O)Nc1cc(N2CCCc3ccccc3C2)nc2ccccc12 [Example 127, N-[2-(1,3,4,5-Tetrahydro-2H-2-benzazepin-2-yl)quinolin-4-yl]glycinamide] | 6.25
9 | Cc1ccc2nc(N3CCS(=O)(=O)c4ccccc4C3)cc(NC(=O)c3cccnc3)c2c1 [Example 47-4, N-[2-(1,1-Dioxido-2,3-dihydro-1,4-benzothiazepin-4(5H)-yl)-6-methylquinolin-4-yl]pyridine-3-carboxamide] | 0.993
10 | Cc1ccc2nc(N3CCS(=O)(=O)c4ccccc4C3)cc(N3CC[C@@H](O)C3)c2c1 [Example 15-4, (3R)-1-[2-(1,1-Dioxido-2,3-dihydro-1,4-benzothiazepin-4(5H)-yl)-6-methylquinolin-4-yl]pyrrolidin-3-ol] | 0.257
11 | Cc1ccc2nc(N3CCS(=O)(=O)c4ccccc4C3)cc(NCCN3CCOCC3)c2c1 [Example 12-1, 2-(1,1-Dioxido-2,3-dihydro-1,4-benzothiazepin-4(5H)-yl)-6-methyl-N-[2-(morpholin-4-yl)ethyl]quinolin-4-amine] | 0.536
12 | Cc1ccc2nc(N3CCS(=O)(=O)c4ccccc4C3)cc(NCCN3CCNCC3)c2c1 [Example 3-28, 2-(1,1-Dioxido-2,3-dihydro-1,4-benzothiazepin-4(5H)-yl)-6-methyl-N-[2-(piperazin-1-yl)ethyl]quinolin-4-amine] | 0.149
13 | Cc1ccc2nc(N3CCS(=O)(=O)c4ccccc4C3)cc(NCCNc3ccccn3)c2c1 [Example 46, N-[2-(1,1-Dioxido-2,3-dihydro-1,4-benzothiazepin-4(5H)-yl)-6-methylquinolin-4-yl]-N′-(pyridin-2-yl)ethane-1,2-diamine] | 0.682
14 | CCS(=O)(=O)c1ccc2c(c1)CCCN(c1cc(NCCN)c3ccccc3n1)C2 [Example 120-2, N-{2-[7-(Ethylsulfonyl)-1,3,4,5-tetrahydro-2H-2-benzazepin-2-yl]quinolin-4-yl}ethane-1,2-diamine] | 1.79
15 | Cc1ccc2nc(N3CC[S+]([O-])c4ccccc4C3)cc(N[C@@H]3CNC[C@H]3F)c2c1 (relative stereo) [Example 28-5, N-[trans-4-Fluoropyrrolidin-3-yl]-6-methyl-2-(1-oxido-2,3-dihydro-1,4-benzothiazepin-4(5H)-yl)quinolin-4-amine] | 0.003
16 | Cc1ccc2nc(N3CCS(=O)(=O)c4ccccc4C3)cc(NCC(N)=O)c2c1 [Example 36-5, N^˜2^˜-[2-(1,1-Dioxido-2,3-dihydro-1,4-benzothiazepin-4(5H)-yl)-6-methylquinolin-4-yl]glycinamide] | 0.026
17 | NC1(CNc2cc(N3CCSc4ccccc4C3)nc3ccc(Cl)cc23)COC1 [Example 4-1, N-[(3-Aminooxetan-3-yl)methyl]-6-chloro-2-(2,3-dihydro-1,4-benzothiazepin-4(5H)-yl)quinolin-4-amine] | 0.269
18 | Cc1ccc2nc(N3CCS(=O)(=O)c4ccccc4C3)cc(N3C[C@H](O)C(C)(C)C3)c2c1 [Example 3-17, (R)-1-[2-(1,1-Dioxido-2,3-dihydro-1,4-benzothiazepin-4(5H)-yl)-6-methylquinolin-4-yl]-4,4-dimethyl-pyrrolidin-3-ol] | 5.05

Row | Structure (SMILES) | EC50 [µM]
19 | CC(C)(N)CNc1cc(N2CCS(=O)(=O)c3ccccc3C2)nc2ccc(Cl)cc12 [Example 3-26, N^˜1^˜-[6-Chloro-2-(1,1-dioxido-2,3-dihydro-1,4-benzothiazepin-4(5H)-yl)quinolin-4-yl]-2-methylpropane-1,2-diamine] | 0.876
20 | Cc1ccc2nc(N3CCS(=O)(=O)c4ccccc4C3)cc(N[C@@H]3CCCC[C@H]3N)c2c1 (relative stereo) [Example 3-15, trans-N-[2-(1,1-Dioxido-2,3-dihydro-1,4-benzothiazepin-4(5H)-yl)-6-methylquinolin-4-yl]cyclohexane-1,2-diamine] | 0.482
21 | Cc1ccc2nc(N3CCS(=O)(=O)c4ccccc4C3)cc(N3CC4CC3C4N)c2c1 (centres unmarked) [Example 19-8, 2-[2-(1,1-Dioxido-2,3-dihydro-1,4-benzothiazepin-4(5H)-yl)-6-methylquinolin-4-yl]-2-azabicyclo[2.1.1]hexan-5-amine] | 2.75
22 | Cc1ccc2nc(N3CC[S+]([O-])c4ccccc4C3)nc(NCC3(NCc4ccccc4)COC3)c2c1 (centres unmarked) [Example 55-2, N-{[3-(Benzylamino)oxetan-3-yl]methyl}-6-methyl-2-(1-oxido-2,3-dihydro-1,4-benzothiazepin-4(5H)-yl)quinazolin-4-amine] | 0.202
23 | Cc1ccc2nc(N3CCS(=O)(=O)c4ccccc4C3)cc(NC(=O)C3CNC(=O)C3)c2c1 (centres unmarked) [Example 47-2, N-[2-(1,1-Dioxido-2,3-dihydro-1,4-benzothiazepin-4(5H)-yl)-6-methylquinolin-4-yl]-5-oxopyrrolidine-3-carboxamide] | 5.82
24 | CNC(=O)CNc1cc(N2CCS(=O)(=O)c3ccccc3C2)nc2ccc(C)cc12 [Example 36-6, N^˜2^˜-[2-(1,1-Dioxido-2,3-dihydro-1,4-benzothiazepin-4(5H)-yl)-6-methylquinolin-4-yl]-N-methylglycinamide] | 0.264
25 | Cc1ccc2nc(N3CCS(=O)(=O)c4ccccc4C3)cc(NCC(=O)O)c2c1 [Example 9-8, N-[2-(1,1-Dioxido-2,3-dihydro-1,4-benzothiazepin-4(5H)-yl)-6-methylquinolin-4-yl]glycine] | 3.48
26 | Cc1ccc2nc(N3CCS(=O)(=O)c4ccccc4C3)cc(N(C)CCN)c2c1 [Example 21-2, N-[2-(1,1-Dioxido-2,3-dihydro-1,4-benzothiazepin-4(5H)-yl)-6-methylquinolin-4-yl]-N-methylethane-1,2-diamine] | 0.161
27 | Cc1ccc2nc(N3CCS(=O)(=O)c4ccccc4C3)cc(N[C@@H]3CNC[C@H]3O)c2c1 (relative stereo) [Example 28-3, trans-4-{[2-(1,1-Dioxido-2,3-dihydro-1,4-benzothiazepin-4(5H)-yl)-6-methylquinolin-4-yl]amino}pyrrolidin-3-ol] | 0.001
28 | Cc1ccc2nc(N3CCS(=O)(=O)c4ccccc4C3)cc(NC3(CNC(=O)C(F)(F)F)COC3)c2c1 [Example 70, N-[(3-{[2-(1,1-Dioxido-2,3-dihydro-1,4-benzothiazepin-4(5H)-yl)-6-methylquinolin-4-yl]amino}oxetan-3-yl)methyl]-2,2,2-trifluoroacetamide] | 0.071
29 | Cc1ccc2nc(N3CCC(F)(F)c4ccccc4C3)cc(NCC(O)CO)c2c1 (centres unmarked) [Example 110-5, 3-{[2-(5,5-Difluoro-1,3,4,5-tetrahydro-2H-2-benzazepin-2-yl)-6-methylquinolin-4-yl]amino}propane-1,2-diol] | 1.66
30 | Cc1ccc2nc(N3CCS(=O)(=O)c4ccccc4C3)cc(NCCC(=O)O)c2c1 [Example 14-2, N-[2-(1,1-Dioxido-2,3-dihydro-1,4-benzothiazepin-4(5H)-yl)-6-methylquinolin-4-1]-beta-alanine] | 8.79
31 | NC1(CNc2cc(N3CC[S+]([O-])c4ccccc4C3)nc3ccc(Cl)cc23)COC1 (centres unmarked) [Example 18-4, N-[(3-Aminooxetan-3-yl)methyl]-6-chloro-2-(1-oxido-2,3-dihydro-1,4-benzothiazepin-4 (5H)-yl)quinolin-4-amine] | 0.061
32 | NCCNc1cc(N2CCS(=O)(=O)c3ccccc3C2)nc2ccc(N)cc12 [Example 85, N^˜4^˜-(2-Aminoethyl)-2-(1,1-dioxido-2,3-dihydro-1,4-benzothiazepin-4(5H)-yl)quinoline-4,6-diamine] | 0.008
33 | O=S1(=O)CCN(c2nc(NCC(O)CO)c3cc(Cl)ccc3n2)Cc2ccccc21 (centres unmarked) [Example 87-2] | 9.31
34 | Cc1ccc2nc(N3CCC(F)(F)c4ccccc4C3)cc(N3CCNCC3)c2c1 [Example 111-1, 5,5-Difluoro-2-[6-methyl-4-(piperazin-1-yl)quinolin-2-yl]-2,3,4,5-tetrahydro-1H-2-benzazepine] | 2.01
35 | Cc1ccc2nc(N3CCS(=O)(=O)c4ccccc4C3)cc(N3CC(N)C3)c2c1 [Example 26-2, 1-[2-(1,1-Dioxido-2,3-dihydro-1,4-benzothiazepin-4(5H)-yl)-6-methylquinolin-4-yl]azetidin-3-amine] | 0.179
